Measured values as given in ChEMBL document CHEMBL1201862, “PubChem BioAssay data set” (2004).
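These data come from cells grown in 96-well plates and exposed to compound for 48 hours at five concentrations. GI50 marks 50% less growth.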 The source made the active and inactive calls. Cut-off read from the data, not from the text of the source: active = GI50 up to about 1.1 µM and inactive = higher.

Tests used:
Test in all cases: growth of human tumour cells (NCI), 48 h
HT-29 = system: HT-29
NCI-H460 = system: NCI-H460
SR = system: SR
KM12 = system: KM12
NCI-H23 = system: NCI-H23
SF-268 = system: SF-268
HOP-62 = system: HOP-62
CCRF-CEM = system: CCRF-CEM
TK-10 = system: TK-10
SF-295 = system: SF-295
BT-549 = system: BT-549
T47D = system: T47D
COLO 205 = system: COLO 205
UACC-257 = system: UACC-257
SK-MEL-28 = system: SK-MEL-28
MDA-N = system: MDA-N
MDA-MB-435 = system: MDA-MB-435
IGROV-1 = system: IGROV-1
PC-3 = system: PC-3
SNB-75 = system: SNB-75

Measured: GI50

OC[C@H](O)[C@@H](OCc1ccccc1)[C@H](NCc1ccccc1)c1cccs1
inactive: HT-29 60 µM | NCI-H460 85.7 µM | SR > 100 µM | KM12 > 100 µM | NCI-H23 55.7 µM | SF-268 4.11 µM | HOP-62 > 100 µM | CCRF-CEM > 100 µM | TK-10 > 100 µM | SF-295 > 100 µM | BT-549 > 100 µM | T47D > 100 µM | COLO 205 > 100 µM | UACC-257 > 100 µM | SK-MEL-28 > 100 µM | MDA-N > 100 µM | MDA-MB-435 > 100 µM | IGROV-1 75.5 µM | PC-3 98.4 µM | SNB-75 65.3 µM

O=C1CCCC1CN1CCCC1 (stereo not given)
active: SR 0.194 µM | CCRF-CEM 0.207 µM
inactive: HT-29 23.2 µM | NCI-H460 42.4 µM | KM12 16.1 µM | NCI-H23 15.3 µM | SF-268 21.6 µM | HOP-62 > 67 µM | TK-10 12.5 µM | SF-295 > 100 µM | BT-549 1.56 µM | T47D 2.75 µM | COLO 205 3.78 µM | UACC-257 15.2 µM | SK-MEL-28 13.6 µM | MDA-N 13.5 µM | MDA-MB-435 13.1 µM | IGROV-1 10.6 µM | PC-3 18.9 µM | SNB-75 17.1 µM

O=C1C(CN2CCCCC2)CCC1CN1CCCCC1 (stereo not given)
active: CCRF-CEM 1.06 µM
inactive: HT-29 20.9 µM | NCI-H460 > 100 µM | SR 1.6 µM | KM12 > 54.7 µM | NCI-H23 23.1 µM | SF-268 49.8 µM | HOP-62 > 100 µM | TK-10 17.8 µM | SF-295 > 46.5 µM | BT-549 19.1 µM | T47D 13.5 µM | COLO 205 14.7 µM | UACC-257 30.3 µM | SK-MEL-28 20 µM | MDA-N 15 µM | MDA-MB-435 33 µM | IGROV-1 32.1 µM | PC-3 27.1 µM | SNB-75 > 47.8 µM

O=C(O)[C@H]1NC[C@H]2C(Br)=NO[C@@H]12
inactive: HT-29 > 100 µM | NCI-H460 > 100 µM | SR > 100 µM | KM12 > 100 µM | NCI-H23 > 100 µM | SF-268 > 100 µM | HOP-62 > 100 µM | CCRF-CEM > 100 µM | TK-10 > 100 µM | SF-295 > 100 µM | BT-549 > 100 µM | T47D > 100 µM | COLO 205 > 100 µM | UACC-257 > 100 µM | SK-MEL-28 > 100 µM | MDA-N > 100 µM | MDA-MB-435 > 100 µM | IGROV-1 > 100 µM | PC-3 > 100 µM | SNB-75 > 100 µM

CC(C)(CN1CCCCC1)C(=O)/C=C/c1ccc(/C=C/C(=O)C(C)(C)CN2CCCCC2)cc1
active: HT-29 0.198 µM | NCI-H460 0.684 µM | SR 0.103 µM | KM12 0.434 µM | NCI-H23 0.711 µM | SF-268 0.413 µM | HOP-62 0.946 µM | CCRF-CEM 0.0466 µM | TK-10 1.05 µM | SF-295 0.661 µM | T47D 0.525 µM | COLO 205 0.152 µM | UACC-257 1.05 µM | MDA-N 0.177 µM | MDA-MB-435 0.421 µM | IGROV-1 0.505 µM | PC-3 0.273 µM | SNB-75 0.673 µM
inactive: BT-549 1.7 µM | SK-MEL-28 1.17 µM
